{"source": "patent US20070259860A1", "about": "“MGluR5 modulators V” (AstraZeneca AB, priority 2006, published 2007)", "key": {"[1]": {"molecular_target": "hERG-encoded potassium channel (Homo sapiens, UniProt Q12809)", "sequence (Q12809 whole entry)": "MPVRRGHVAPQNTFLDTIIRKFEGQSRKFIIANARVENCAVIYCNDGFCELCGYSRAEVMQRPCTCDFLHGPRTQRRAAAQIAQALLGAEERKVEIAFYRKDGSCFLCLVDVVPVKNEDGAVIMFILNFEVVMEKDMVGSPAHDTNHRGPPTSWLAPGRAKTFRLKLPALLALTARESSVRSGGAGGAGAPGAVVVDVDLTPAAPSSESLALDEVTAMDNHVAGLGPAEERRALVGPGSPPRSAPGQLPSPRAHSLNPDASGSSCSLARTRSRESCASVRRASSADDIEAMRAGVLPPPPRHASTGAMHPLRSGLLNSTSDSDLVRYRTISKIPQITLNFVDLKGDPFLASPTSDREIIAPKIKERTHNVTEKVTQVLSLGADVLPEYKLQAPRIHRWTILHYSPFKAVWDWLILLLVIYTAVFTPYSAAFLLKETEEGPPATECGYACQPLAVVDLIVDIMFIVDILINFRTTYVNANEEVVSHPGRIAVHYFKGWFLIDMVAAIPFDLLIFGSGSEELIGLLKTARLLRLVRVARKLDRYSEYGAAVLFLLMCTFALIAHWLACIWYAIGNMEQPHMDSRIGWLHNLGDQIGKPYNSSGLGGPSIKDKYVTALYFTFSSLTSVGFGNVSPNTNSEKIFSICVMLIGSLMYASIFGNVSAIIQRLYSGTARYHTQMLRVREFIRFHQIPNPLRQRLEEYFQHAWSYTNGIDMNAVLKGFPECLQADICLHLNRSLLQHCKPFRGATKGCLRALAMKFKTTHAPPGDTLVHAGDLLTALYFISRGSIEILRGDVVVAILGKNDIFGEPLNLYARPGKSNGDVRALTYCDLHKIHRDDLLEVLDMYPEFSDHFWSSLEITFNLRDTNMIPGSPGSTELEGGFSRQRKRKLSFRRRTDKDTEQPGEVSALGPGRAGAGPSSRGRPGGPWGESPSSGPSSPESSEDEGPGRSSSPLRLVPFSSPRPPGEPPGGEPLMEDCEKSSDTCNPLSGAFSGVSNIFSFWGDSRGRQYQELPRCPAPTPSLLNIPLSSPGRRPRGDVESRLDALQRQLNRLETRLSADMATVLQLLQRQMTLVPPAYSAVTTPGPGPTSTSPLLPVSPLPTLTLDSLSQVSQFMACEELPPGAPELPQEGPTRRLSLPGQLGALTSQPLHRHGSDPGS", "assay": "hERG IonWorks", "type": "cell-based"}, "[2]": {"assay": "Determination of brain to plasma ratio in rat", "type": "in vivo", "conditions": "brain and plasma, female Sprague Dawley rats, read-out: Brain/Plasma Ratio of compound in Rat", "protocol": "Brain to plasma ratios are estimated in female Sprague Dawley rats. The compound is dissolved in water or another appropriate vehicle. For determination of brain to plasma ratio the compound is administrated as a subcutaneous, or an intravenous bolus injection, or an intravenous infusion, or an oral administration. At a predetermined time point after the administration a blood sample is taken with cardiac puncture. The rat is terminated by cutting the heart open, and the brain is immediately retained. The blood samples are collected in heparinized tubes and centrifuged within 30 minutes, in order to separate the plasma from the blood cells. The plasma is transferred to 96-well plates and stored at −20° C. until analysis. The brains are divided in half, and each half is placed in a pre-tarred tube and stored at −20° C. until analysis. Prior to the analysis, the brain samples are thawed and 3 ml/g brain tissue of distilled water is added to the tubes. The brain samples are sonicated in an ice bath until the samples are homogenized. Both brain and plasma samples are precipitated with acetonitrile. After centrifugation, the supernatant is diluted with 0.2% formic acid. Analysis is performed on a short reversed-phase HPLC column with rapid gradient elution and MSMS detection using a triple quadrupole instrument with electrospray ionisation and Selected Reaction Monitoring (SRM) acquisition. Liquid-liquid extraction may be used as an alternative sample clean-up. The samples are extracted, by shaking, to an organic solvent after addition of a suitable buffer. An aliquot of the organic layer is transferred to a new vial and evaporated to dryness under a stream of nitrogen. After reconstitution of the residuals the samples are ready for injection onto the HPLC column."}, "[3]": {"assay": "In vitro stability in human liver microsomes (CLint)", "type": "in vitro ADME", "conditions": "pH 7.4, 0.5 mg/mL protein, 1.0 μmol/L compound, NADPH", "protocol": "Rat liver microsomes are prepared from Sprague-Dawley rats liver samples. Human liver microsomes are either prepared from human liver samples or acquired from BD Gentest. The compounds are incubated at 37° C. at a total microsome protein concentration of 0.5 mg/mL in a 0.1 mol/L potassium phosphate buffer at pH 7.4, in the presence of the cofactor, NADPH (1.0 mmol/L). The initial concentration of compound is 1.0 μmol/L. Samples are taken for analysis at 5 time points, 0, 7, 15, 20 and 30 minutes after the start of the incubation. The enzymatic activity in the collected sample is immediately stopped by adding a 3.5 times volume of acetonitrile. The concentration of compound remaining in each of the collected samples is determined by means of LC-MS. The elimination rate constant (k) of the mGluR5 inhibitor is calculated as the slope of the plot of In[mGluR5 inhibitor] against incubation time (minutes). The elimination rate constant is then used to calculate the half-life (T ½) of the mGluR5 inhibitor, which is subsequently used to calculate the intrinsic clearance (CLint) of the mGluR5 inhibitor in liver microsomes as:\nCLint.=(ln2×incubation volume)/(T½×protein concentration)=μl/min/mg"}, "human mGluR5d": {"molecular_target": "T1, human mGluR5d (Homo sapiens, UniProt P41594)", "T1 construct": "expressed in transfected cells", "T1 sequence (P41594 21-942 isoform P41594-3 limits assumed)": "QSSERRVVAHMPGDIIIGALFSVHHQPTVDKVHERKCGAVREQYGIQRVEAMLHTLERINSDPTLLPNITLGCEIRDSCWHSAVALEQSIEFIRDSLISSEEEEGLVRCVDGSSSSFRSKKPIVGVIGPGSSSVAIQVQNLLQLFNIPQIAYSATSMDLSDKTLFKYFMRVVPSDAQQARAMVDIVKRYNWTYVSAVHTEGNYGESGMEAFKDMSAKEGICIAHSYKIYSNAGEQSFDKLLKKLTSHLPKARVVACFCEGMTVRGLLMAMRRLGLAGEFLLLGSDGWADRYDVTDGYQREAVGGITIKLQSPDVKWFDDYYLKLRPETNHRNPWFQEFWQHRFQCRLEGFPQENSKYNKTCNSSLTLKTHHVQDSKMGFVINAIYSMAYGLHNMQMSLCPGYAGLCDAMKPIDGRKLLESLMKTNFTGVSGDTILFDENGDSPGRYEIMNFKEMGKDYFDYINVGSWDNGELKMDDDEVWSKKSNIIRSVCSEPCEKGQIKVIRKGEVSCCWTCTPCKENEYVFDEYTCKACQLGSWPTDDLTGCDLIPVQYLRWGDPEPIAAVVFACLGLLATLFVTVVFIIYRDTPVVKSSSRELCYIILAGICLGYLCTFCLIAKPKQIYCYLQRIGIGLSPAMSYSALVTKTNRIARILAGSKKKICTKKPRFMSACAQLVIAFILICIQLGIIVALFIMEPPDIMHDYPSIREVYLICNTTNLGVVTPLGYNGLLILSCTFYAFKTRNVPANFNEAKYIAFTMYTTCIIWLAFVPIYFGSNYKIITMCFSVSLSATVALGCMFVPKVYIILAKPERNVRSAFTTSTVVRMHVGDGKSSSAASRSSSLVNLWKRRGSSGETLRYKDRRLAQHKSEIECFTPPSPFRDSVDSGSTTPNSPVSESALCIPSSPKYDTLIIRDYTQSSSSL", "assay": "FLIPR assay, mGluR5 antagonism in cells expressing human mGluR5d", "type": "cell-based", "conditions": "intracellular calcium mobilization, read-out: FLIPR hmGluR5d", "from_the_text": "The properties of the compounds of the invention can be analyzed using standard assays for pharmacological activity. Examples of glutamate receptor assays are well known in the art as described in for example Aramori et al., Neuron 8:757 (1992), Tanabe et al., Neuron 8:169 (1992), Miller et al., J. Neuroscience 15: 6103 (1995), Balazs, et al., J. Neurochemistry 69:151 (1997). The methodology described in these publications is incorporated herein by reference. Conveniently, the compounds of the invention can be studied by means of an assay (FLIPR) that measures the mobilization of intracellular calcium, [Ca^2+]i in cells expressing mGluR5 or another assay (IP3) that measures inositol phosphate turnover.\nCells expressing human mGluR5d as described in WO97/05252 are seeded at a density of 100,000 cells per well on collagen coated clear bottom 96-well plates with black sides and experiments are done 24 h following seeding. All assays are done in a buffer containing 127 mM NaCl, 5 mM KCl, 2 mM MgCl2, 0.7 mM NaH2PO4, 2 mM CaCl2, 0.422 mg/ml NaHCO3, 2.4 mg/ml HEPES, 1.8 mg/ml glucose and 1 mg/ml BSA Fraction IV (pH 7.4). Cell cultures in the 96-well plates are loaded for 60 minutes in the above mentioned buffer containing 4 μM of the acetoxymethyl ester form of the fluorescent calcium indicator fluo-3 (Molecular Probes, Eugene, Oreg.) in 0.01% pluronic acid (a proprietary, non-ionic surfactant polyol—CAS Number 9003-11-6). Following the loading period the fluo-3 buffer is removed and replaced with fresh assay buffer. FLIPR experiments are done using a laser setting of 0.800 W and a 0.4 second CCD camera shutter speed with excitation and emission wavelengths of 488 nm and 562 nm, respectively. Each experiment is initiated with 160 μl of buffer present in each well of the cell plate. A 40 μl addition from the antagonist plate was followed by a 50 μL addition from the agonist plate. A 90 second interval separates the antagonist and agonist additions. The fluorescence signal is sampled 50 times at 1 second intervals followed by 3 samples at 5 second intervals immediately after each of the two additions. Responses are measured as the difference between the peak height of the response to agonist, less the background fluorescence within the sample period. IC50 determinations are made using a linear least squares fitting program."}}, "data": [{"smiles": "Cc1cccc(-n2nnc(CN3CCCn4c(-c5cccnc5)nnc43)n2)c1", "note": "[Example 35.1, 3-Pyridin-3-yl-8-(2-m-tolyl-2H-tetrazol-5-ylmethyl)-5,6,7,8-tetrahydro-[1,2,4]triazolo[4,3-a]pyrimidine]", "values": [{"measurement": "hERG IonWorks", "setting": "[1]", "result": 26, "unit": "µM"}, {"measurement": "Kp", "setting": "[2]", "result": 0.005}, {"measurement": "microsomal CLint at 1 μmol/L", "setting": "[3]", "result": "< 12", "unit": "µL/min/mg"}, {"measurement": "IC50", "setting": "human mGluR5d", "result": 37, "unit": "nM"}]}, {"smiles": "Clc1cccc(-c2nc(CN3CCCn4c(-c5cccnc5)nnc43)no2)c1", "note": "[Example 35.2, 8-{[5-(3-chlorophenyl)-1,2,4-oxadiazol-3-yl]methyl}-3-pyridin-3-yl-5,6,7,8-tetrahydro[1,2,4]triazolo[4,3-a]pyrimidine]", "values": [{"measurement": "Kp", "setting": "[2]", "result": 0.05}, {"measurement": "IC50", "setting": "human mGluR5d", "result": 52, "unit": "nM"}]}, {"smiles": "Clc1cccc(-c2nc(CN3CCCn4c(-c5cncnc5)nnc43)no2)c1", "note": "[Example 35.17, 8-[5-(3-Chloro-phenyl)-[1,2,4]oxadiazol-3-ylmethyl]-3-pyrimidin-5-yl-5,6,7,8-tetrahydro-[1,2,4]triazolo[4,3-a]pyrimidine]", "values": [{"measurement": "hERG IonWorks", "setting": "[1]", "result": 22, "unit": "µM"}, {"measurement": "Kp", "setting": "[2]", "result": 0.11}, {"measurement": "microsomal CLint at 1 μmol/L", "setting": "[3]", "result": 14, "unit": "µL/min/mg"}, {"measurement": "IC50", "setting": "human mGluR5d", "result": 44, "unit": "nM"}]}, {"smiles": "C[C@H](c1cc(-c2cccc(Cl)c2)on1)N1CCCn2c(-c3cn[nH]c(=O)c3)nnc21", "note": "[Example 59.3, 5-(8-{1-[5-(3-Chloro-phenyl)-isoxazol-3-yl]-ethyl}-5,6,7,8-tetrahydro-[1,2,4]triazolo[4,3-a]pyrimidin-3-yl)-2H-pyridazin-3-one]", "values": [{"measurement": "hERG IonWorks", "setting": "[1]", "result": 15, "unit": "µM"}, {"measurement": "microsomal CLint at 1 μmol/L", "setting": "[3]", "result": "< 12", "unit": "µL/min/mg"}, {"measurement": "IC50", "setting": "human mGluR5d", "result": 34, "unit": "nM"}]}]}
